Data as given in the supplement of paper PMC10307832.

Tests used:
Assay in all cases: relative viability (nuclei count vs DMSO), 5 days (fraction); higher = more cells survive
Kobe2602 + Alpelisib = compound: C1=CC(=CC=C1NC(=S)NNC2=C(C=C(C=C2[N+](=O)[O-])C(F)(F)F)[N+](=O)[O-])F [Kobe2602] + Cc1nc(NC(=O)N2CCC[C@H]2C(N)=O)sc1-c1ccnc(C(C)(C)C(F)(F)F)c1 [Alpelisib] (partner 2 µM)
Summary of the method: (§1)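 Dosing by pin tool came one day after lung cancer cell lines were seeded in 1536-well plates, using either one drug or a fixed anchor-drug dose plus five library-drug doses (not always all listed) in √10 steps. After 5 days, nuclei were counted on 4× images. Relative viability is treated-well nuclei count divided by vehicle-well nuclei count, and values are medians of duplicate plates.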

Zosuquidar + Navitoclax = compound: O[C@@H](COc1cccc2ncccc12)CN1CCN([C@@H]2c3ccccc3[C@@H]3[C@H](c4ccccc42)C3(F)F)CC1 [Zosuquidar] + CC1(C)CCC(c2ccc(Cl)cc2)=C(CN2CCN(c3ccc(C(=O)NS(=O)(=O)c4ccc(N[C@H](CCN5CCOCC5)CSc5ccccc5)c(S(=O)(=O)C(F)(F)F)c4)cc3)CC2)C1 [Navitoclax] (partner 0.5 µM)
Summary of the method: as §1

[1] = compound: COc1cc2nccc(Oc3ccc(NC(=O)C4(C(=O)Nc5ccc(F)cc5)CC4)cc3)c2cc1OC [Cabozantinib] + Cc1cc(Nc2cc(N3CCN(C)CC3)nc(Sc3ccc(NC(=O)C4CC4)cc3)n2)n[nH]1 [Tozasertib] (partner 0.1 µM)
Summary of the method: as §1

Zosuquidar + AZD7762 = compound: O[C@@H](COc1cccc2ncccc12)CN1CCN([C@@H]2c3ccccc3[C@@H]3[C@H](c4ccccc42)C3(F)F)CC1 [Zosuquidar] + NC(=O)Nc1cc(-c2cccc(F)c2)sc1C(=O)N[C@H]1CCCNC1 [AZD7762] (partner 0.2 µM)
Summary of the method: as §1

| Cell Line | relative viability (Kobe2602 + Alpelisib; first compound 0.2 µM) | relative viability (Kobe2602 + Alpelisib; first compound 0.6325 µM) | relative viability (Kobe2602 + Alpelisib; first compound 2 µM) | relative viability (Kobe2602 + Alpelisib; first compound 6.325 µM) | relative viability (Kobe2602 + Alpelisib; first compound 20 µM) | relative viability (Zosuquidar + Navitoclax; first compound 0.01 µM) | relative viability (Zosuquidar + Navitoclax; first compound 0.03162 µM) | relative viability (Zosuquidar + Navitoclax; first compound 0.1 µM) | relative viability (Zosuquidar + Navitoclax; first compound 0.3162 µM) | relative viability (Zosuquidar + Navitoclax; first compound 1 µM) | relative viability ([1]; first compound 0.02 µM) | relative viability ([1]; first compound 0.06325 µM) | relative viability ([1]; first compound 0.2 µM) | relative viability ([1]; first compound 0.6325 µM) | relative viability ([1]; first compound 2 µM) | relative viability (Zosuquidar + AZD7762; first compound 0.01 µM) | relative viability (Zosuquidar + AZD7762; first compound 0.03162 µM) | relative viability (Zosuquidar + AZD7762; first compound 0.1 µM) | relative viability (Zosuquidar + AZD7762; first compound 0.3162 µM) | relative viability (Zosuquidar + AZD7762; first compound 1 µM) |
| --- | --- | --- | --- | --- | --- | --- | --- | --- | --- | --- | --- | --- | --- | --- | --- | --- | --- | --- | --- | --- |
| A549 | 0.716 | 0.905 | 0.74 | 0.846 | 0.789 | 1.16 | 0.892 | 1.16 | 1.23 | 1.24 | – | – | – | – | – | – | – | – | – | – |
| NCI-H1299 | 1.02 | 1.05 | 1.08 | 1.13 | 1.05 | 1.06 | 1.02 | 1.03 | 1.01 | 1.04 | – | – | – | – | – | – | – | – | – | – |
| NCI-H1623 | – | – | – | – | – | – | – | – | – | – | 0.4 | 0.42 | 0.427 | 0.443 | 0.455 | – | – | – | – | – |
| SK-LU-1 | 1.03 | 1.37 | 0.968 | 0.948 | 0.977 | 0.82 | 0.789 | 1.44 | 0.974 | 0.586 | 0.414 | 0.371 | 0.378 | 0.342 | 0.299 | – | – | – | – | – |
| SK-MES-1 | 0.817 | 0.955 | 0.844 | 0.79 | 0.877 | 1.19 | 1.18 | 1.09 | 1.25 | 1.25 | 1.09 | 0.991 | 0.999 | 0.927 | 0.753 | – | – | – | – | – |
| NCI-H2228 | 0.724 | 0.712 | 0.747 | 0.713 | 0.776 | 1.12 | 0.679 | 0.922 | 1.12 | 0.775 | 0.342 | 0.306 | 0.296 | 0.29 | 0.196 | – | – | – | – | – |
| NCI-H2023 | 0.561 | 0.58 | 0.588 | 0.516 | 0.498 | 0.958 | 1 | 0.916 | 1.05 | 0.92 | 0.401 | 0.437 | 0.301 | 0.232 | 0.15 | – | – | – | – | – |
| NCI-H522 | – | – | – | – | – | – | – | – | – | – | 0.612 | 0.535 | 0.502 | 0.614 | 0.511 | 0.993 | 0.928 | 1.05 | 0.807 | 0.984 |
| Calu-6 | 0.883 | 1.04 | 0.96 | 1 | 0.987 | 0.88 | 0.81 | 0.895 | 0.86 | 0.813 | – | – | – | – | – | – | – | – | – | – |
| ChaGo-K-1 | – | – | – | – | – | 1.14 | 0.971 | 1.28 | 1.09 | 0.964 | 0.263 | 0.203 | 0.234 | 0.23 | 0.201 | 0.807 | 0.799 | 0.896 | 0.818 | 0.93 |
| COR-L23 | 0.752 | 0.827 | 0.809 | 0.885 | 0.83 | 0.999 | 1.14 | 1.11 | 1.02 | 1.02 | 0.235 | 0.212 | 0.194 | 0.145 | 0.137 | – | – | – | – | – |
| LCLC-103H | 0.897 | 0.944 | 0.961 | 1.02 | 0.985 | – | – | – | – | – | 0.552 | 0.471 | 0.474 | 0.486 | 0.391 | 0.793 | 0.76 | 0.672 | 0.755 | 0.809 |
